Active and inactive are the calls of the source. The calls are words filed in the database; no cut-off is given here.
What was measured:
[1] = biological target: T1, Dual specificity tyrosine-phosphorylation-regulated kinase 2 (Homo sapiens) (UniProt Q92630); test: Binding affinity to recombinant DYRK2 (unknown origin) assessed as change in melting temperature 10 uM by differential scanning fluorimetry
T1 sequence (whole entry): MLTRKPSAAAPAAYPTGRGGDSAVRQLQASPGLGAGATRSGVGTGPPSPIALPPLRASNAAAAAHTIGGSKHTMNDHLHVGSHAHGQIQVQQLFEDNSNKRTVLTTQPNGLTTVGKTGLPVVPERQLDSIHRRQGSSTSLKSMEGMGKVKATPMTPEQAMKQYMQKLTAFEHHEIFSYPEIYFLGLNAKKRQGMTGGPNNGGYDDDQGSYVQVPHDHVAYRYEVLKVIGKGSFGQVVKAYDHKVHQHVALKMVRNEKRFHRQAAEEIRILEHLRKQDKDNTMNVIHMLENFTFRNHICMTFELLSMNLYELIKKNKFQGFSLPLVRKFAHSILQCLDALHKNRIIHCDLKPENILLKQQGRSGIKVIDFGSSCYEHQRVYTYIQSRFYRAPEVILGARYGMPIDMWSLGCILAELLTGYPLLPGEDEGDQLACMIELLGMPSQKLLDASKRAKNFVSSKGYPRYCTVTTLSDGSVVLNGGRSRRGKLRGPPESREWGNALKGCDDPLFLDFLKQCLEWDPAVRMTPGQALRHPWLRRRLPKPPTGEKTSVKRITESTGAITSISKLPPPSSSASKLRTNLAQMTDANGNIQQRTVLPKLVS

[2] = system: BaF3; test: cells; conditions: Mus musculus, BaF3, 72 h
[3] = biological target: RAC-alpha serine/threonine-protein kinase (Mus musculus) (UniProt P31750); test: Inhibition of AKT phosphorylation in mouse BaF3 cells harboring L858R mutant assessed as […] phosphorylation at 10 to 1000 nM incubated for 8 hrs by Western blot analysis; assay type: cell-based; conditions: dose 10-1000 nM
Sequence of RAC-alpha serine/threonine-protein kinase (Mus musculus) (P31750 whole entry): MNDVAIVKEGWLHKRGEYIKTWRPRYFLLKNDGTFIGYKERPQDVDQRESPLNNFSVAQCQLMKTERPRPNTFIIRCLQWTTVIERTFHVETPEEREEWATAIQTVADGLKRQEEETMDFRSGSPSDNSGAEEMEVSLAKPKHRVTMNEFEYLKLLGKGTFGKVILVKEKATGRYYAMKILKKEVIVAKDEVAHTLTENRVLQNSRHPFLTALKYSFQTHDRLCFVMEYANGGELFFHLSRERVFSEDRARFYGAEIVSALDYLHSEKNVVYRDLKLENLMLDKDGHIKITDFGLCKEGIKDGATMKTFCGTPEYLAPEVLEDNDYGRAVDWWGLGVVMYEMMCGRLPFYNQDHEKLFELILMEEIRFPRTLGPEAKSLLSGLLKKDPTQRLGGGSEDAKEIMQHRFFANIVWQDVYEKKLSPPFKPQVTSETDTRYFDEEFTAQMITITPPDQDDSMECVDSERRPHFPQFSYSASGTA

[4] = system: BaF3; test: cells; assay type: functional, cell-based; conditions: Mus musculus, BaF3, 72 h
[5] = biological target: Epidermal growth factor receptor (Homo sapiens, UniProt P00533, L858R)
Sequence of Epidermal growth factor receptor (Homo sapiens, UniProt P00533, L858R) (P00533 25-1210 L858R limits assumed): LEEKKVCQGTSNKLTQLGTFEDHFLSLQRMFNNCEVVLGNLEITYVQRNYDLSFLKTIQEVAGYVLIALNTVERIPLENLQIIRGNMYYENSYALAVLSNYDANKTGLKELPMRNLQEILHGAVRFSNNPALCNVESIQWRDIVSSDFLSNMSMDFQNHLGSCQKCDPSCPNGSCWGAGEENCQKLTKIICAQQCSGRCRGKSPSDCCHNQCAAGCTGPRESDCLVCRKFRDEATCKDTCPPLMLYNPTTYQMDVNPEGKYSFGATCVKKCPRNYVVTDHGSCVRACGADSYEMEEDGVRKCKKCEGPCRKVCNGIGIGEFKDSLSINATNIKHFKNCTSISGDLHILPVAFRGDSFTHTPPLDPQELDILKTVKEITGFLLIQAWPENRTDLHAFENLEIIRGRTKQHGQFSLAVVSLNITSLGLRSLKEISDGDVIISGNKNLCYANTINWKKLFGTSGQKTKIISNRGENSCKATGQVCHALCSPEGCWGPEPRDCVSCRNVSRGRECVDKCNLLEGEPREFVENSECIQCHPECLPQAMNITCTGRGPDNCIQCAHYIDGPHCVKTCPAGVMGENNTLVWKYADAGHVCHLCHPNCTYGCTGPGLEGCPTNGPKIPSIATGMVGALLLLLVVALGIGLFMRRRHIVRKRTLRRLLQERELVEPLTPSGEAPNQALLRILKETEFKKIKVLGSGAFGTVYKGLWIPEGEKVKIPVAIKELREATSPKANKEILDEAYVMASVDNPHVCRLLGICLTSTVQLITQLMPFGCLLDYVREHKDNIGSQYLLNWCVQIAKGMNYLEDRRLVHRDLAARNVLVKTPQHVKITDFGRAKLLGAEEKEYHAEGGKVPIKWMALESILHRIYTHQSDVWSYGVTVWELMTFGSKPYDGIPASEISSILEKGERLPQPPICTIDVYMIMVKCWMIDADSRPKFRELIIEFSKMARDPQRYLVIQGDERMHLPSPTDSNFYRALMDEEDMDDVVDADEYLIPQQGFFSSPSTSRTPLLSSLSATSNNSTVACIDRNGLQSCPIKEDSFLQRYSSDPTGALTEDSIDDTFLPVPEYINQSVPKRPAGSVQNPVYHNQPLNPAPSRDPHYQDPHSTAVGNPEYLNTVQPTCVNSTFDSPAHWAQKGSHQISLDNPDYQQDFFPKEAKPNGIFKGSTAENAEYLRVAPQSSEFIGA

[6] = system: BaF3; test: cells; conditions: Mus musculus, BaF3, 72 h; remark: listed apart in the source
[7] = system: BaF3; test: cells; assay type: functional, cell-based; conditions: Mus musculus, BaF3, 72 h; remark: listed apart in the source
[8] = biological target: Epidermal growth factor receptor (Homo sapiens, UniProt P00533, EX19DEL)
Sequence of Epidermal growth factor receptor (Homo sapiens, UniProt P00533, EX19DEL) (P00533 whole entry, looked up, stated change not applied): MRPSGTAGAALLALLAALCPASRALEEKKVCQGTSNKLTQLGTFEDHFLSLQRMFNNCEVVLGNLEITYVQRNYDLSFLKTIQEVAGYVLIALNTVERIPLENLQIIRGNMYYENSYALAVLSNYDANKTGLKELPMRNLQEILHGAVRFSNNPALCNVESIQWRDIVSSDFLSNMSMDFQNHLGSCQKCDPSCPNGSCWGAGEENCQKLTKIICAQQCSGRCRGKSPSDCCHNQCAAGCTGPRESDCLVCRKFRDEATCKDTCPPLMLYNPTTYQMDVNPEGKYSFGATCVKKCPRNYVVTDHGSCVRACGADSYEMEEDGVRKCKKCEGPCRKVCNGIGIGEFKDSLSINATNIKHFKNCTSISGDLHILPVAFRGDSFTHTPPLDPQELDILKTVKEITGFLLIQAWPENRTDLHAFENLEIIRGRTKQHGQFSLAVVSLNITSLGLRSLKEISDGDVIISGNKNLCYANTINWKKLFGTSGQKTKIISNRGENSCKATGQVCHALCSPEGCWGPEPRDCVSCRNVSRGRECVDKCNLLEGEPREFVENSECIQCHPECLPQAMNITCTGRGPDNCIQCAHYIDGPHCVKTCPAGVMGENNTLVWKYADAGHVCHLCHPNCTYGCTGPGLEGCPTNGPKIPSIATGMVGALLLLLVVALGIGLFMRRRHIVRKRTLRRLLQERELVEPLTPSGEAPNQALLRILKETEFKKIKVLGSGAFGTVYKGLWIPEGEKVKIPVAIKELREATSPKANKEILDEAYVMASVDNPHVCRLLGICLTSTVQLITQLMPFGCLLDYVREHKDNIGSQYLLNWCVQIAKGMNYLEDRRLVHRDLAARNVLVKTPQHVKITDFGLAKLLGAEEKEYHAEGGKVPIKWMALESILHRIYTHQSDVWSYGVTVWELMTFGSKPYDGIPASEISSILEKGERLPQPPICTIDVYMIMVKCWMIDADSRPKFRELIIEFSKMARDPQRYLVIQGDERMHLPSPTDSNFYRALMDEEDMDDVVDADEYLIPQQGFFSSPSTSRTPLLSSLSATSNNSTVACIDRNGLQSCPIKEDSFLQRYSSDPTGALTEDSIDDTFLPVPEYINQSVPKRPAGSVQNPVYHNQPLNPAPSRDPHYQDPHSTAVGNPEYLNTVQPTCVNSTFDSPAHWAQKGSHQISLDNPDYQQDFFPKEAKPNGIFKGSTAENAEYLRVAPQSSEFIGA

[9] = biological target: T2, Mitogen-activated protein kinase 1 and 3 (ERK2 and ERK1) (Mus musculus) (UniProt P63085+Q63844); assay type: cell-based; conditions: BaF3, dose 10-1000 nM, time 8.0 hrs
T2 sequence (P63085 whole entry, looked up): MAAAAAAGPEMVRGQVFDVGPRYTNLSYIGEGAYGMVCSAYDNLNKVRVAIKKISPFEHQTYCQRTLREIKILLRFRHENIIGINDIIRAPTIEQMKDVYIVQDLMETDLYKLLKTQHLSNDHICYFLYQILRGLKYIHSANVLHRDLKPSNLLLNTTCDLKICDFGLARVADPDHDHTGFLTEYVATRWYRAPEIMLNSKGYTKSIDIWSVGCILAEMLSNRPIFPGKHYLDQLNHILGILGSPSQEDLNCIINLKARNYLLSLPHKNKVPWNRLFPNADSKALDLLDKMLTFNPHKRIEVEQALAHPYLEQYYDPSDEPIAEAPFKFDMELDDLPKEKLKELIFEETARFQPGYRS
T2 sequence (Q63844 whole entry, looked up): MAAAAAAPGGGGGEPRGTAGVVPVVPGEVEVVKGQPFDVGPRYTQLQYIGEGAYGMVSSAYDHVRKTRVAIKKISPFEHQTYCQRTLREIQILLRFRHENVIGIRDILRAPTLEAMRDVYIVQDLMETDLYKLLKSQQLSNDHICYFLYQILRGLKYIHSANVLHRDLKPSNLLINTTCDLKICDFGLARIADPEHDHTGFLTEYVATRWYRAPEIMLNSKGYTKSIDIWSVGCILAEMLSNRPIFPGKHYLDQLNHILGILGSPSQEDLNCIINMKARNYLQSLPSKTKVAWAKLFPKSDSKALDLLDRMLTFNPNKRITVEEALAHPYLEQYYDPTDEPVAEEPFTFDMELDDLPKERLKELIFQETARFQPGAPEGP

[10] = system: BaF3; test: cells; conditions: Mus musculus, BaF3, 72 h; remark: listed apart in the source
[11] = biological target: T2, Mitogen-activated protein kinase 1 and 3 (ERK2 and ERK1) (Mus musculus); test: Inhibition of ERK1/2 phosphorylation in mouse BaF3 cells harboring Del19 mutant assessed as ERK1/2 phosphorylation at 10 to 1000 nM incubated for 8 hrs by Western blot analysis; assay type: cell-based; conditions: dose 10-1000 nM
[12] = system: Epidermal growth factor receptor (Homo sapiens), P04626+P00533+Q15303+P21860 [L858R]; conditions: Mus musculus; BaF3; dose 10-1000 nM, time 8.0 hrs
[13] = biological target: RAC-alpha serine/threonine-protein kinase (Mus musculus) (UniProt P31750); assay type: cell-based; conditions: BaF3, dose 10-1000 nM, time 8.0 hrs
[14] = system: BaF3; test: cells; assay type: functional, cell-based; conditions: Mus musculus, BaF3, 72 h; remark: listed apart in the source
[15] = biological target: T3, Serine/threonine-protein kinase 17A (Homo sapiens) (UniProt Q9UEE5); test: Binding affinity to recombinant STK17A (unknown origin) assessed as change in melting temperature 10 uM by differential scanning fluorimetry
T3 sequence (whole entry): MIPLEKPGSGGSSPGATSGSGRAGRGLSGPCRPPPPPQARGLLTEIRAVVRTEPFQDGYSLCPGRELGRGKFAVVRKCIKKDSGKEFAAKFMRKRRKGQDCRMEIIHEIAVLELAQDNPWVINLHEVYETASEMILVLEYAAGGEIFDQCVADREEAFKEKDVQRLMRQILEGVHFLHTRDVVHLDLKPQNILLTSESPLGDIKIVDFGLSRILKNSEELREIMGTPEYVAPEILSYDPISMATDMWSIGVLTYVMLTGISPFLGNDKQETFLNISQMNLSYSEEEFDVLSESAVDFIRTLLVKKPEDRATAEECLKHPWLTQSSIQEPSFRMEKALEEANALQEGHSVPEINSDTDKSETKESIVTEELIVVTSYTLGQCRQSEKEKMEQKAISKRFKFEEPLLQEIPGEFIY

[16] = biological target: T4, Serine/threonine-protein kinase 17B (Homo sapiens) (UniProt O94768); test: Binding affinity to recombinant […] (unknown origin) assessed as change in melting temperature 10 uM by differential scanning fluorimetry
T4 sequence (whole entry): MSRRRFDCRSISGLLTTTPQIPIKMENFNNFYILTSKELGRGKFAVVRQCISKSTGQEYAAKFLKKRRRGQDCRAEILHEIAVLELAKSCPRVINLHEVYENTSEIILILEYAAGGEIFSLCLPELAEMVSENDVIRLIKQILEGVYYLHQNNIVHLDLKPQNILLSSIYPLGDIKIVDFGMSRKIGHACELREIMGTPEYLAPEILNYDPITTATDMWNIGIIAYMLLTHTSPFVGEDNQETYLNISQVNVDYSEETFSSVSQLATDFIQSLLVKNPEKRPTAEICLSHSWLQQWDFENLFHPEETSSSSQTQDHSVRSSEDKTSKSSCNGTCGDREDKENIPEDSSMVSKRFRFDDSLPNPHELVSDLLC

[17] = biological target: Dual specificity tyrosine-phosphorylation-regulated kinase 1A (Homo sapiens) (UniProt Q13627); test: Binding affinity to recombinant DYRK1 (unknown origin) assessed as change in melting temperature 10 uM by differential scanning fluorimetry
[18] = biological target: RAC-alpha serine/threonine-protein kinase (Mus musculus) (UniProt P31750); test: Inhibition of AKT phosphorylation in mouse BaF3 cells harboring Del19 mutant assessed as […] phosphorylation at 10 to 1000 nM incubated for 8 hrs by Western blot analysis; assay type: cell-based; conditions: dose 10-1000 nM
[19] = biological target: T2, Mitogen-activated protein kinase 1 and 3 (ERK2 and ERK1) (Mus musculus); test: Inhibition of ERK1/2 phosphorylation in mouse BaF3 cells harboring L858R mutant assessed as ERK1/2 phosphorylation at 10 to 1000 nM incubated for 8 hrs by Western blot analysis; assay type: cell-based; conditions: dose 10-1000 nM
[20] = biological target: T2, Mitogen-activated protein kinase 1 and 3 (ERK2 and ERK1) (Mus musculus); assay type: cell-based; conditions: BaF3, dose 10-1000 nM, time 8.0 hrs; remark: listed apart in the source
[21] = biological target: RAC-alpha serine/threonine-protein kinase (Mus musculus) (UniProt P31750); assay type: cell-based; conditions: BaF3, dose 10-1000 nM, time 8.0 hrs; remark: listed apart in the source
[22] = biological target: Epidermal growth factor receptor (Homo sapiens, UniProt P00533)
Sequence of Epidermal growth factor receptor (Homo sapiens, UniProt P00533) (P00533 whole entry): as the sequence (P00533 whole entry, looked up, stated change not applied) above

ΔTm [1]: > 3 °C
IC50 [2]: 93.1 nM
inhibition [3]: Active
IC50 [4]: 5.18 µM
IC50 [5]: 18.8 nM
IC50 [6]: 206 nM
IC50 [7]: 120 nM
IC50 [8]: 11.5 nM
inhibition [9]: Active
IC50 [10]: 141 nM
inhibition [11]: Active
inhibition [12]: Active
inhibition [13]: Active
IC50 [14]: 121 nM
ΔTm [15]: > 3 °C
ΔTm [16]: > 3 °C
ΔTm [17]: > 3 °C
inhibition [18]: Active
inhibition [19]: Active
inhibition [20]: Active
inhibition [21]: Active
IC50 [22]: 1800 nM
Compound: COc1cc2ncnc(Nc3cc(Cl)c(F)cc3O)c2cc1O
